Reference: PMC3351444, “Molecular Evolution of a Peptide GPCR Ligand Driven by Artificial Neural Networks” (PLoS ONE, 2012)
pEC50: −log10 of the molar value. Square brackets hold non-standard residues; d marks the D form. Peptide text beside a SMILES is read from it.

Legend:
human CMKLR1 = target: T1, human CMKLR1 (Homo sapiens, UniProt Q99788); assay: Ca2+ mobilization (CellLux imaging) agonist assay in HEK293A cells expressing CMKLR1 and Gα15; type: cell-based; settings: Ca2+ mobilization, CMKLR1, decimal comma; for pEC50: NR where no EC50 is given, read-out: EC50
T1 construct: host or cells: HEK293A (Invitrogen), stably expressing human Gα15
T1 sequence (Q99788 1-373): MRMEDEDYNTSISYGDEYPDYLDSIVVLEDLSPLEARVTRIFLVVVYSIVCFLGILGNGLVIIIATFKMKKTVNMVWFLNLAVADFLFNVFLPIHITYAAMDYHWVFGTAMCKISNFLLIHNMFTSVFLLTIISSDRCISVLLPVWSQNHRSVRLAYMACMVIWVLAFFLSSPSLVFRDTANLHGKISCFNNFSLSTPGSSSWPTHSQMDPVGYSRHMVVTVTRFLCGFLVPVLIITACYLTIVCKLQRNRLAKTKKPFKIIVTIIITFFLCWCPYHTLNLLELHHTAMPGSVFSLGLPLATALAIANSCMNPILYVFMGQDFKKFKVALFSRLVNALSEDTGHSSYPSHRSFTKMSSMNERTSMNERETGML
How it was run: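 HEK293A cells co-expressing CMKLR1 and Gα15 were loaded with FLUO4-AM, and peptides were added robotically in C1 buffer (HEPES pH 7.4, 2 mM CaCl2) with 0.1% BSA. Fluorescence changes were read in duplicate wells, buffer-subtracted and normalized to background. EC50 came from amplitude–concentration plots.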

[1] = In vitro peptide stability in human serum (RP-HPLC); settings: human, human serum, 25% (v/v) in RPMI
Method: The initial time is recorded, and at known time intervals 50 µL of the reaction solution is removed and added to 100 µL of 6% aqueous trichloroacetic acid (TCA) for precipitation of serum proteins. […] The reaction supernatant is then analyzed using RP-HPLC (Agilent 1200 LC System) on a ZORBAX Eclipse XDB-C18, 4.6×150 mm, 5 µm column (Agilent). […] Fluorescence is detected at an excitation wavelength of 280 nm and emission wavelength of 340 nm. Kinetic analysis was carried out by least-squares analysis of the logarithm of the integration peak area versus time.

| SMILES | max response (human CMKLR1) | pEC50 (human CMKLR1) | half-life at 50 µg/mL [1] |
| --- | --- | --- | --- |
| C[C@H](NC(=O)[C@H](Cc1ccc(O)cc1)NC(=O)[C@H](CCC(N)=O)NC(=O)[C@@H](CO)NC(=O)[C@H](Cc1ccccc1)NC(=O)[C@H](C)NC(=O)[C@@H](N)Cc1ccc(O)cc1)C(=O)N[C@@H](Cc1ccccc1)C(=O)N[C@H](CO)C(=O)O [compound 92] (H-YAF[dS]QYAF[dS]-OH; N-terminus assumed) | 1,54 DF/F0 | 7.22 | 0.867 h |
| CC(C)C[C@H](NC(=O)[C@H](N)Cc1ccccc1)C(=O)N1CCC[C@H]1C(=O)NCC(=O)N[C@@H](CCC(N)=O)C(=O)N[C@@H](Cc1ccc(O)cc1)C(=O)N[C@@H](C)C(=O)N[C@@H](Cc1ccccc1)C(=O)N[C@H](CO)C(=O)O [compound 95] (H-[dF]LPGQYAF[dS]-OH; N-terminus assumed) | 1,75 DF/F0 | 7.09 | 40.6 h |
| CC(C)C[C@@H](NC(=O)[C@H](Cc1c[nH]cn1)NC(=O)[C@H](N)CO)C(=O)NCC(=O)N[C@@H](CCC(N)=O)C(=O)N[C@@H](Cc1ccc(O)cc1)C(=O)N[C@@H](C)C(=O)N[C@H](CC(=O)O)C(=O)N[C@@H](CO)C(=O)O [compound 96] (H-[dS]H[dL]GQYA[dD]S-OH; N-terminus assumed) | 1,63 DF/F0 | 7.04 | 54.1 h |
| C[C@H](NC(=O)CN)C(=O)N[C@@H](Cc1ccccc1)C(=O)N[C@@H](CCC(N)=O)C(=O)N[C@@H](Cc1ccccc1)C(=O)N[C@H](CO)C(=O)N[C@@H](C)C(=O)N[C@@H](Cc1ccccc1)C(=O)N[C@H](CO)C(=O)O [compound 100] (H-GAFQF[dS]AF[dS]-OH; N-terminus assumed) | 1,69 DF/F0 | 6.89 | 1.18 h |
| C[C@H](NC(=O)[C@H](Cc1ccccc1)NC(=O)[C@H](C)NC(=O)[C@H](Cc1ccc(O)cc1)NC(=O)[C@H](C)NC(=O)[C@H](Cc1ccccc1)NC(=O)[C@@H](CO)NC(=O)[C@H](Cc1ccccc1)NC(=O)[C@@H](N)CCC(N)=O)C(=O)O [compound 102] (H-QF[dS]FAYAFA-OH; N-terminus assumed) | 1,78 DF/F0 | 6.85 | 1.38 h |
| CC(C)[C@H](NC(=O)[C@@H](Cc1ccc(O)cc1)NC(=O)[C@H](CO)NC(=O)[C@@H]1CCCN1)C(=O)N1CCC[C@H]1C(=O)NCC(=O)N[C@@H](CCC(N)=O)C(=O)N[C@@H](Cc1ccc(O)cc1)C(=O)N[C@@H](C)C(=O)O [compound 107] (H-PS[dY]VPGQYA-OH; N-terminus assumed) | 1,97 DF/F0 | 5.98 | 6.03 h |
| C[C@H](NC(=O)[C@H](Cc1ccc(O)cc1)NC(=O)[C@H](CCC(N)=O)NC(=O)CNC(=O)[C@H](Cc1ccccc1)NC(=O)[C@H](Cc1ccc(O)cc1)NC(=O)[C@H](N)CS)C(=O)N[C@@H](Cc1ccccc1)C(=O)N[C@H](CO)C(=O)O [compound 113] (H-[dC]YFGQYAF[dS]-OH; N-terminus assumed) | 1,56 DF/F0 | 5.66 | 0.483 h |

The remaining compounds from weak to strong by pEC50 (human CMKLR1), led by results:

| max response (human CMKLR1) | pEC50 (human CMKLR1) | half-life at 50 µg/mL [1] | SMILES |
| --- | --- | --- | --- |
| 1,2 DF/F0 | 5.60 | 0.4 h | C[C@H](NC(=O)[C@H](Cc1ccccc1)NC(=O)[C@H](C)NC(=O)[C@H](Cc1ccccc1)NC(=O)[C@@H](N)CCC(N)=O)C(=O)N[C@@H](Cc1ccccc1)C(=O)N[C@@H](C)C(=O)N[C@@H](Cc1ccccc1)C(=O)N[C@H](CO)C(=O)O [compound 115] (H-QFAFAFAF[dS]-OH; N-terminus assumed) |
| 1,5 DF/F0 | 5.71 | 1.53 h | CC(C)C[C@H](NC(=O)[C@@H]1CCCN1C(=O)[C@@H](NC(=O)[C@H](Cc1ccc(O)cc1)NC(=O)[C@@H]1CCCN1)C(C)C)C(=O)N[C@H](CC(=O)O)C(=O)N[C@@H](Cc1ccc(O)cc1)C(=O)N[C@@H](C)C(=O)N[C@@H](Cc1ccccc1)C(=O)O [compound 111] (H-PYVPL[dD]YAF-OH; N-terminus assumed) |
| 1,53 DF/F0 | 6.16 | 1.83 h | C[C@H](N)C(=O)N[C@@H](Cc1ccccc1)C(=O)N[C@H](CO)C(=O)N[C@@H](CCC(N)=O)C(=O)N[C@@H](Cc1ccccc1)C(=O)N[C@H](CO)C(=O)N[C@@H](C)C(=O)N[C@@H](Cc1ccccc1)C(=O)N[C@H](CO)C(=O)O [compound 106] (H-AF[dS]QF[dS]AF[dS]-OH; N-terminus assumed) |
| 1,73 DF/F0 | 6.61 | 1.33 h | CC(C)C[C@H](NC(=O)[C@H](N)Cc1ccc(O)cc1)C(=O)N1CCC[C@@H]1C(=O)NCC(=O)N[C@@H](CCC(N)=O)C(=O)N[C@@H](Cc1ccc(O)cc1)C(=O)N[C@@H](C)C(=O)N[C@@H](Cc1ccccc1)C(=O)N[C@@H](CO)C(=O)O [compound 104] (H-[dY]L[dP]GQYAFS-OH; N-terminus assumed) |
| 1,56 DF/F0 | 6.85 | 1.35 h | CC(C)C[C@H](NC(=O)[C@H](N)Cc1ccc(O)cc1)C(=O)N1CCC[C@H]1C(=O)NCC(=O)N[C@@H](CCC(N)=O)C(=O)N[C@@H](Cc1ccc(O)cc1)C(=O)N[C@@H](C)C(=O)N[C@@H](Cc1ccc(O)cc1)C(=O)N[C@@H](CO)C(=O)O [compound 101] (H-[dY]LPGQYAYS-OH; N-terminus assumed) |
| 1,7 DF/F0 | 6.89 | 0.717 h | CC(C)[C@H](N)C(=O)N1CCC[C@H]1C(=O)NCC(=O)N[C@@H](CCC(N)=O)C(=O)N[C@@H](Cc1ccc(O)cc1)C(=O)N[C@@H](C)C(=O)N[C@@H](Cc1ccccc1)C(=O)N[C@H](CO)C(=O)N[C@H](CO)C(=O)O [compound 99] (H-VPGQYAF[dS][dS]-OH; N-terminus assumed) |
| 1,56 DF/F0 | 7.12 | 0.783 h | C[C@H](NC(=O)[C@H](Cc1ccc(O)cc1)NC(=O)[C@H](CCC(N)=O)NC(=O)CNC(=O)[C@@H]1CCCN1C(=O)[C@H](CCC(=O)O)NC(=O)[C@@H](N)Cc1ccc(O)cc1)C(=O)N[C@@H](Cc1ccccc1)C(=O)N[C@H](CO)C(=O)O [compound 94] (H-YEPGQYAF[dS]-OH; N-terminus assumed) |
| 1,67 DF/F0 | 7.19 | 1.35 h | C[C@H](NC(=O)[C@@H](N)Cc1ccc(O)cc1)C(=O)N[C@@H](Cc1ccccc1)C(=O)N[C@H](CO)C(=O)N1CCC[C@H]1C(=O)NCC(=O)N[C@@H](CCC(N)=O)C(=O)N[C@@H](Cc1ccccc1)C(=O)N[C@H](CO)C(=O)O [compound 93] (H-YAF[dS]PGQF[dS]-OH; N-terminus assumed) |
| 1,58 DF/F0 | 7.27 | 2.52 h | CC(C)[C@H](NC(=O)[C@H](N)Cc1ccc(O)cc1)C(=O)N1CCC[C@H]1C(=O)NCC(=O)N[C@@H](CCC(N)=O)C(=O)N[C@@H](Cc1ccc(O)cc1)C(=O)N[C@@H](C)C(=O)N[C@@H](Cc1ccccc1)C(=O)N[C@@H](CO)C(=O)O [compound 91] (H-[dY]VPGQYAFS-OH; N-terminus assumed) |
| 1,81 DF/F0 | 7.30 | 0.383 h | CC(C)[C@H](NC(=O)[C@@H](N)Cc1ccc(O)cc1)C(=O)N1CCC[C@H]1C(=O)NCC(=O)N[C@@H](CCC(N)=O)C(=O)N[C@@H](Cc1ccccc1)C(=O)N[C@@H](C)C(=O)N[C@@H](Cc1ccccc1)C(=O)N[C@H](CO)C(=O)O [compound 90] (H-YVPGQFAF[dS]-OH; N-terminus assumed) |
